In the supplement of paper PMC10307832 one finds relative viability data, which are given here for eight cell lines.

Holding throughout (experiment): relative viability (nuclei count vs DMSO), 5 days (fraction); higher = more cells survive
Compound in experiment [1]: C1=CC2=C(C=C(C(=C2N=C1)O)N=NC3=CC4=C(C=C3)C=C(C=C4)S(=O)(=O)O)S(=O)(=O)O + Cc1nc(NC(=O)N2CCC[C@H]2C(N)=O)sc1-c1ccnc(C(C)(C)C(F)(F)F)c1 [Alpelisib] (partner 2 µM)
In a few lines: (§1)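 Each reported value is a median over duplicate plates. It expresses relative viability: treated-well nuclei count divided by vehicle-well nuclei count. Lung cancer cell lines in 1536-well plates were dosed by pin tool a day after seeding, alone with one drug or with a fixed anchor-drug dose plus five library-drug doses (not always all listed) in √10 steps, and nuclei were counted after 5 days.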

Compound in experiment [2]: C1=CC2=C(C=C(C(=C2N=C1)O)N=NC3=CC4=C(C=C3)C=C(C=C4)S(=O)(=O)O)S(=O)(=O)O + CC(=O)c1c(C)c2cnc(Nc3ccc(N4CCNCC4)cn3)nc2n(C2CCCC2)c1=O [Palbociclib] (partner 0.5 µM)
In a few lines: as §1

Compound in the experiment “AT-7519 + Pemetrexed”: O=C(NC1CCNCC1)c1n[nH]cc1NC(=O)c1c(Cl)cccc1Cl [AT-7519] + Nc1nc2[nH]cc(CCc3ccc(C(=O)N[C@@H](CCC(=O)O)C(=O)O)cc3)c2c(=O)[nH]1 [Pemetrexed] (partner 0.2 µM)
A digest of the protocol: as §1

Compound in the experiment “AT-7519 + Pictilisib”: O=C(NC1CCNCC1)c1n[nH]cc1NC(=O)c1c(Cl)cccc1Cl [AT-7519] + CS(=O)(=O)N1CCN(Cc2cc3nc(-c4cccc5[nH]ncc45)nc(N4CCOCC4)c3s2)CC1 [Pictilisib] (partner 1 µM)
In a few lines:
as §1

For the cell line NCI-H1915, the relative viability in experiment [1] (first compound 0.08 µM) is 1.09; in experiment [1] (first compound 0.253 µM), 1.05; in experiment [1] (first compound 0.8 µM), 1.08; in experiment [1] (first compound 2.53 µM) it was 1.09; in experiment [1] (first compound 8 µM), 1.06; in experiment [2] (first compound 0.08 µM) it was 0.415. Besides, the relative viability in experiment [2] (first compound 0.253 µM) amounted to 0.523; in experiment [2] (first compound 0.8 µM), 0.488; in experiment [2] (first compound 2.53 µM) it was 0.545; in experiment [2] (first compound 8 µM) it was 0.494; in the experiment with AT-7519 + Pemetrexed (first compound 0.01 µM), 0.5; in the experiment with AT-7519 + Pemetrexed (first compound 0.03162 µM), 0.494. Moreover, the relative viability stood at 0.516 with AT-7519 + Pemetrexed (first compound 0.3162 µM); 0.501 with AT-7519 + Pemetrexed (first compound 1 µM); 0.987 in the experiment with AT-7519 + Pictilisib (first compound 0.01 µM); 0.943 with AT-7519 + Pictilisib (first compound 0.03162 µM); 0.755 in the experiment with AT-7519 + Pictilisib (first compound 0.3162 µM); 0.417 in the experiment with AT-7519 + Pictilisib (first compound 1 µM).

For the cell line NCI-H2405, the relative viability in experiment [1] (first compound 0.08 µM) turned out to be 0.805; in experiment [1] (first compound 0.253 µM) it was 0.758; in experiment [1] (first compound 0.8 µM), 0.838; in experiment [1] (first compound 2.53 µM), 0.886; in experiment [1] (first compound 8 µM), 0.722; in experiment [2] (first compound 0.08 µM), 0.517. For the same cell line, the relative viability in experiment [2] (first compound 0.253 µM) was found to be 0.543; in experiment [2] (first compound 0.8 µM), 0.504; in experiment [2] (first compound 2.53 µM), 0.575; in experiment [2] (first compound 8 µM) it was 0.513; with AT-7519 + Pemetrexed (first compound 0.01 µM), 1.02; with AT-7519 + Pemetrexed (first compound 0.03162 µM), 0.996. Besides, the relative viability is 1.08 in the experiment with AT-7519 + Pemetrexed (first compound 0.3162 µM); 0.729 with AT-7519 + Pemetrexed (first compound 1 µM); 0.461 with AT-7519 + Pictilisib (first compound 0.01 µM); 0.424 with AT-7519 + Pictilisib (first compound 0.03162 µM); 0.438 in the experiment with AT-7519 + Pictilisib (first compound 0.3162 µM); 0.293 with AT-7519 + Pictilisib (first compound 1 µM).

NCI-H322M: the relative viability was found to be 0.917 in experiment [1] (first compound 0.08 µM); 0.82 in experiment [1] (first compound 0.253 µM); 0.687 in experiment [1] (first compound 0.8 µM); 0.846 in experiment [1] (first compound 2.53 µM); 0.814 in experiment [1] (first compound 8 µM); 0.473 in experiment [2] (first compound 0.08 µM). Besides, the relative viability in experiment [2] (first compound 0.253 µM) turned out to be 0.462; in experiment [2] (first compound 0.8 µM) it was 0.501; in experiment [2] (first compound 2.53 µM) it was 0.454; in experiment [2] (first compound 8 µM), 0.514; with AT-7519 + Pemetrexed (first compound 0.01 µM), 0.563; with AT-7519 + Pemetrexed (first compound 0.03162 µM), 0.623. Further, the relative viability was found to be 0.469 with AT-7519 + Pemetrexed (first compound 0.3162 µM); 0.543 with AT-7519 + Pemetrexed (first compound 1 µM); 0.565 with AT-7519 + Pictilisib (first compound 0.01 µM); 0.495 with AT-7519 + Pictilisib (first compound 0.03162 µM); 0.473 with AT-7519 + Pictilisib (first compound 0.3162 µM); 0.439 with AT-7519 + Pictilisib (first compound 1 µM).

Take NCI-H2170: the relative viability in experiment [1] (first compound 0.08 µM) is 0.872; in experiment [1] (first compound 0.253 µM), 0.802; in experiment [1] (first compound 0.8 µM), 0.78; in experiment [1] (first compound 2.53 µM) it was 0.82; in experiment [1] (first compound 8 µM), 0.76; in experiment [2] (first compound 0.08 µM), 0.469. In addition, the relative viability in experiment [2] (first compound 0.253 µM) amounted to 0.401; in experiment [2] (first compound 0.8 µM), 0.393; in experiment [2] (first compound 2.53 µM), 0.438; in experiment [2] (first compound 8 µM) it was 0.402; with AT-7519 + Pemetrexed (first compound 0.01 µM), 0.263; with AT-7519 + Pemetrexed (first compound 0.03162 µM) it was 0.276. Besides, the relative viability turned out to be 0.241 with AT-7519 + Pemetrexed (first compound 0.3162 µM); 0.25 in the experiment with AT-7519 + Pemetrexed (first compound 1 µM); 0.305 in the experiment with AT-7519 + Pictilisib (first compound 0.01 µM); 0.29 in the experiment with AT-7519 + Pictilisib (first compound 0.03162 µM); 0.234 with AT-7519 + Pictilisib (first compound 0.3162 µM); 0.255 in the experiment with AT-7519 + Pictilisib (first compound 1 µM).

As to NCI-H1395, the relative viability turned out to be 1.08 in experiment [1] (first compound 0.08 µM); 1.21 in experiment [1] (first compound 0.253 µM); 1.09 in experiment [1] (first compound 0.8 µM); 1.06 in experiment [1] (first compound 2.53 µM); 1.23 in experiment [1] (first compound 8 µM); 0.692 in experiment [2] (first compound 0.08 µM). Further, the relative viability is 0.614 in experiment [2] (first compound 0.253 µM); 0.616 in experiment [2] (first compound 0.8 µM); 0.572 in experiment [2] (first compound 2.53 µM); 0.628 in experiment [2] (first compound 8 µM); 0.847 with AT-7519 + Pemetrexed (first compound 0.01 µM); 0.896 with AT-7519 + Pemetrexed (first compound 0.03162 µM). Also, the relative viability with AT-7519 + Pemetrexed (first compound 0.3162 µM) stood at 0.899; with AT-7519 + Pemetrexed (first compound 1 µM), 0.558; with AT-7519 + Pictilisib (first compound 0.01 µM), 0.662; in the experiment with AT-7519 + Pictilisib (first compound 0.03162 µM) it was 0.523; in the experiment with AT-7519 + Pictilisib (first compound 0.3162 µM), 0.51; with AT-7519 + Pictilisib (first compound 1 µM) it was 0.471.

For the cell line NCI-H358, the relative viability worked out at 0.902 in experiment [1] (first compound 0.08 µM); 0.927 in experiment [1] (first compound 0.253 µM); 0.776 in experiment [1] (first compound 0.8 µM); 0.833 in experiment [1] (first compound 2.53 µM); 0.354 in experiment [1] (first compound 8 µM); 0.138 in experiment [2] (first compound 0.08 µM). Also, the relative viability in experiment [2] (first compound 0.253 µM) stood at 0.134; in experiment [2] (first compound 0.8 µM), 0.166; in experiment [2] (first compound 2.53 µM) it was 0.134; in experiment [2] (first compound 8 µM) it was 0.135; with AT-7519 + Pemetrexed (first compound 0.01 µM), 0.175; with AT-7519 + Pemetrexed (first compound 0.03162 µM) it was 0.172. Further, the relative viability with AT-7519 + Pemetrexed (first compound 0.3162 µM) was found to be 0.164; with AT-7519 + Pemetrexed (first compound 1 µM), 0.132; with AT-7519 + Pictilisib (first compound 0.01 µM), 0.294; with AT-7519 + Pictilisib (first compound 0.03162 µM), 0.308; with AT-7519 + Pictilisib (first compound 0.3162 µM), 0.239; in the experiment with AT-7519 + Pictilisib (first compound 1 µM), 0.212.

For the cell line NCI-H838, the relative viability in experiment [1] (first compound 0.08 µM) came out at 1.22; in experiment [1] (first compound 0.253 µM), 0.959; in experiment [1] (first compound 0.8 µM) it was 1.05; in experiment [1] (first compound 2.53 µM), 1.05; in experiment [1] (first compound 8 µM), 0.97; in experiment [2] (first compound 0.08 µM), 0.254. Moreover, the relative viability in experiment [2] (first compound 0.253 µM) worked out at 0.216; in experiment [2] (first compound 0.8 µM), 0.227; in experiment [2] (first compound 2.53 µM), 0.249; in experiment [2] (first compound 8 µM), 0.26; with AT-7519 + Pemetrexed (first compound 0.01 µM), 0.247; with AT-7519 + Pemetrexed (first compound 0.03162 µM), 0.246. Besides, the relative viability with AT-7519 + Pemetrexed (first compound 0.3162 µM) came to 0.281; with AT-7519 + Pemetrexed (first compound 1 µM), 0.115; with AT-7519 + Pictilisib (first compound 0.01 µM), 0.567; with AT-7519 + Pictilisib (first compound 0.03162 µM), 0.427; with AT-7519 + Pictilisib (first compound 0.3162 µM), 0.145; with AT-7519 + Pictilisib (first compound 1 µM), 0.103.

As for CAL-12T, the relative viability in experiment [1] (first compound 0.08 µM) was 1.85; in experiment [1] (first compound 0.253 µM), 1.13; in experiment [1] (first compound 0.8 µM) it was 1.08; in experiment [1] (first compound 2.53 µM), 1.29; in experiment [1] (first compound 8 µM) it was 1.13; in experiment [2] (first compound 0.08 µM), 0.471. The relative viability in experiment [2] (first compound 0.253 µM) was determined as 0.352; in experiment [2] (first compound 0.8 µM), 0.415; in experiment [2] (first compound 2.53 µM) it was 0.481; in experiment [2] (first compound 8 µM) it was 0.351; in the experiment with AT-7519 + Pemetrexed (first compound 0.01 µM), 1.23; with AT-7519 + Pemetrexed (first compound 0.03162 µM) it was 1.11. In addition, the relative viability with AT-7519 + Pemetrexed (first compound 0.3162 µM) was 0.584; in the experiment with AT-7519 + Pemetrexed (first compound 1 µM) it was 0.147; with AT-7519 + Pictilisib (first compound 0.03162 µM) it was 0.514; with AT-7519 + Pictilisib (first compound 0.3162 µM) it was 0.214; in the experiment with AT-7519 + Pictilisib (first compound 1 µM) it was 0.193.
